This is an account of results in BindingDB's records for doi:10.1021/jm034056q (Wyeth Research, 2003).

This assay deals with Beta-lactamase TEM (Escherichia coli) (UniProt P62593). Nature of the assay: In vitro inhibitory activity against Beta-lactamase TEM-1 of class A enzyme.
Sequence of Beta-lactamase TEM (Escherichia coli) (P62593 whole entry, looked up): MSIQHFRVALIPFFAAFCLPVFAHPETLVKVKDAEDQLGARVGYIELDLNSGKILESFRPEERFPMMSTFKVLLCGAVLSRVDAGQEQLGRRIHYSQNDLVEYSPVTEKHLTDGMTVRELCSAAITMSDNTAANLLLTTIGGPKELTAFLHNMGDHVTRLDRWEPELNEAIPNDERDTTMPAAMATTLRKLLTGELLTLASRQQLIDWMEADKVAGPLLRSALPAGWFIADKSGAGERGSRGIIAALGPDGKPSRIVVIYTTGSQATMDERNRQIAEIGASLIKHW
As for `CC(C)(C)[Si](C)(C)O[C@@H]1C[C@@]12C(=O)N1[C@@H](C(=O)O)C(C)(C)S(=O)(=O)[C@@H]12` [(2S,5R,6R)-2'-(tert-Butyl-dimethyl-silanyl-oxy)-3,3-dimethyl-7-oxo-4-thia-1-azaspiro[bicyclo[3.2.0]heptane-6,1'-cyclopropane]-2-carboxylic acid 4,4-dioxide], the half-inhibitory concentration (IC50) stood at 12000 nM.

`CC(C)(C)[Si](C)(C)O[C@H]1C[C@]12C(=O)N1[C@@H](C(=O)O)C(C)(C)S(=O)(=O)[C@@H]12` [(2S,5R,6R)-2'-(tert-Butyl-dimethyl-silanyl-oxy)-3,3-dimethyl-7-oxo-4-thia-1-azaspiro[bicyclo[3.2.0]heptane-6,1'-cyclopropane]-2-carboxylic acid 4,4-dioxide] registered an IC50 of 650 nM.

In turn, `CC1(C)[C@H](C(=O)O)N2C(=O)[C@@]3(C[C@H]3OC3CCCCC3)[C@H]2S1(=O)=O` [2'-(cyclohexyloxy)-3,3-dimethyl-7-oxo-4-thia-1-azaspiro[bicyclo[3.2.0]heptane-6,1'-cyclopropane]-2-carboxylic acid 4,4-dioxide] registered an IC50 greater than 13000 nM.

Compound `CC1(C)[C@H](C(=O)O)N2C(=O)[C@]3(C[C@@H]3OC3CCCCC3)[C@H]2S1(=O)=O` [(2S,5R,6R)-2'-(cyclohexyloxy)-3,3-dimethyl-7-oxo-4-thia-1-azaspiro[bicyclo[3.2.0]heptane-6,1'-cyclopropane]-2-carboxylic acid 4,4-dioxide] returned a half-maximal inhibitory concentration (IC50) of 510 nM.

On to `CC1(C)[C@H](C(=O)O)N2C(=O)[C@@]3(C[C@@H]3OC3CCCCC3)[C@H]2S1(=O)=O` [(2S,5R,6S)-2'-(cyclohexyloxy)-3,3-dimethyl-7-oxo-4-thia-1-azaspiro[bicyclo[3.2.0]heptane-6,1'-cyclopropane]-2-carboxylic acid 4,4-dioxide], for which the half-inhibitory concentration (IC50) turned out to be 1700 nM. This IC50 lies about 3.3-fold higher than the previous one.

In turn, `CC(C)(C)[Si](C)(C)O[C@H]1C[C@@]12C(=O)N1[C@@H](C(=O)O)C(C)(C)S(=O)(=O)[C@@H]12` [(2R,5R,6R)-2'-(tert-Butyl-dimethyl-silanyl-oxy)-3,3-dimethyl-7-oxo-4-thia-1-azaspiro[bicyclo[3.2.0]heptane-6,1'-cyclopropane]-2-carboxylic acid 4,4-dioxide] showed a 50% inhibitory concentration (IC50) of 17000 nM.
